Measured values taken from patent US10703733B2, “MCL-1 inhibitors” (Gilead Sciences, Inc., priority 2018, dated 2020).
Like-named read-outs stand apart in the source and are kept apart here.

How the values were obtained:
SKBR3 cells = experiment: SKBR3 Cell Viability Assay (CellTiter Glo); format: cell-based; settings: CellTiter Glo luminescence, read-out: MCL-1 CV SKBR3 EC50
Outline: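 SKBR3 cells (6,000/well) in McCoy 5A + 10% FBS exposed to serially diluted compound for 72 h at 37° C., 5% CO2. Viability by CellTiter Glo luminescence; % inhibition normalized to DMSO (negative) and 10 μM puromycin (positive).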

[1] = target: MCL-1/Bim interaction (recombinant human MCL-1 protein, residues 171-327; biotinylated human Bim peptide, residues 51-76) (Homo sapiens (Human), UniProt Q07820); experiment: MCL-1/Bim Binding AlphaLISA Assay; settings: 0.0625 nM 6xHis-Mcl-1 (171-327), 0.0625 nM biotinylated-Bim peptide
Outline: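 AlphaLISA with 0.0625 nM His-tagged MCL-1 and 0.0625 nM biotin-Bim peptide in 20 mM Hepes pH 7.5, 150 mM NaCl, 0.002% Brij 35, 1 mM DTT, 0.01% BSA. Compound preincubated 1 h with MCL-1, Bim added for 2 h, then acceptor and donor beads 1 h each.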

MCL-1/Bim interaction (recombinant human MCL-1 protein, residues 171-327; biotinylated human Bim peptide, residues 51-76), sequence (Q07820 171-327): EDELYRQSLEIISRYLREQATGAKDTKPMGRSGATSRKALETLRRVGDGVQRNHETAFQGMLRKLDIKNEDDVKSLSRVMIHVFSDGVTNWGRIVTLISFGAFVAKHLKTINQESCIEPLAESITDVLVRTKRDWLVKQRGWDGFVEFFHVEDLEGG

COc1nn(C)cc1C(=O)N[S@@]1(=O)=NC(=O)c2ccc3c(c2)N(C[C@@H]2CC[C@H]2[C@@H](O)CCC[C@H](C)[C@H]1C)C[C@@]1(CCCc2cc(Cl)ccc21)CO3 [Example 290]
EC50 (SKBR3 cells; Homo sapiens, SK-BR-3, 72 h): 26.4 nM | IC50 [1]: 0.03 nM

CO[C@H]1/C=C/C[C@H](C)C[S@@](=O)(NC(=O)N2CC(OC(=O)N(C)C)C2)=NC(=O)c2ccc3c(c2)N(C[C@@H]2CC[C@H]21)C[C@@]1(CCCc2cc(Cl)ccc21)CO3 [Example 292]
EC50 (SKBR3 cells; Homo sapiens, SK-BR-3, 72 h): 45.1 nM | IC50 [1]: 0.02 nM

COc1nn(C)cc1C(=O)N[S@@]1(=O)=NC(=O)c2ccc3c(c2)N(C[C@@H]2CC[C@H]2[C@@H](OC(=O)CN(C)C(=O)CNC(C)(C)C)/C=C/C[C@H](C)[C@H]1C)C[C@@]1(CCCc2cc(Cl)ccc21)CO3 [Example 293]
EC50 (SKBR3 cells; Homo sapiens, SK-BR-3, 72 h): 69.2 nM | IC50 [1]: 0.058 nM

CNC1CN(C(=O)N[S@@]2(=O)=NC(=O)c3ccc4c(c3)N(C[C@@H]3CC[C@H]3[C@@H](OC)/C=C/C[C@H](C)C2)C[C@@]2(CCCc3cc(Cl)ccc32)CO4)C1 [Example 294]
EC50 (SKBR3 cells; Homo sapiens, SK-BR-3, 72 h): 260 nM | IC50 [1]: 0.129 nM

COc1nn(C)cc1C(=O)N[S@@]1(=O)=NC(=O)c2ccc3c(c2)N(C[C@@H]2CC[C@H]2[C@@H](OC)/C=C/[C@H](OCCN2CCOCC2)[C@H](C)C1)C[C@@]1(CCCc2cc(Cl)ccc21)CO3 [Example 295]
EC50 (SKBR3 cells; Homo sapiens, SK-BR-3, 72 h): 22 nM | IC50 [1]: 0.04 nM

CCO[C@H]1/C=C/[C@H](OC)[C@@H]2CC[C@H]2CN2C[C@@]3(CCCc4cc(Cl)ccc43)COc3ccc(cc32)C(=O)N=[S@](=O)(NC(=O)c2cn(C)nc2OC)C[C@H]1C [Example 296]
EC50 (SKBR3 cells; Homo sapiens, SK-BR-3, 72 h): 64.1 nM | IC50 [1]: 0.053 nM

CO[C@H]1/C=C/C[C@H](C)C[S@@](=O)(NC(=O)N2CC(N3CCN4CCOC[C@@H]4C3)C2)=NC(=O)c2ccc3c(c2)N(C[C@@H]2CC[C@H]21)C[C@@]1(CCCc2cc(Cl)ccc21)CO3 [Example 297]
EC50 (SKBR3 cells; Homo sapiens, SK-BR-3, 72 hours): 69 nM | IC50 [1]: 0.033 nM

COc1nn(C)cc1C(=O)N[S@@]1(=O)=NC(=O)c2ccc3c(c2)N(C[C@@H]2CC[C@H]2[C@@H](OC)CC[C@H](O)[C@H](C)C1)C[C@@]1(CCCc2cc(Cl)ccc21)CO3 [Example 298]
EC50 (SKBR3 cells; Homo sapiens, SK-BR-3, 72 h): 71.9 nM | IC50 [1]: 0.016 nM

COc1nn(C)cc1C(=O)N[S@@]1(=O)=NC(=O)c2ccc3c(c2)N(C[C@@H]2CC[C@H]2[C@@H](OC)CC[C@H](OC)[C@H](C)C1)C[C@@]1(CCCc2cc(Cl)ccc21)CO3 [Example 299]
EC50 (SKBR3 cells; Homo sapiens, SK-BR-3, 72 h): 59.7 nM | IC50 [1]: 0.039 nM

COc1nn(C)cc1C(=O)N[S@@]1(=O)=NC(=O)c2ccc3c(c2)N(C[C@@H]2CC[C@H]2[C@@H](OC(=O)CCN2CCOCC2)/C=C/C[C@H](C)C1)C[C@@]1(CCCc2cc(Cl)ccc21)CO3 [Example 300]
EC50 (SKBR3 cells; Homo sapiens, SK-BR-3, 72 h): 26.8 nM | IC50 [1]: 0.026 nM

COc1nn(C)cc1C(=O)N[S@@]1(=O)=NC(=O)c2ccc3c(c2)N(C[C@@H]2CC[C@H]2[C@@H](OC(=O)CN(C)C)/C=C/C[C@H](C)C1)C[C@@]1(CCCc2cc(Cl)ccc21)CO3 [Example 301]
EC50 (SKBR3 cells; Homo sapiens, SK-BR-3, 72 h): 41.9 nM | IC50 [1]: 0.04 nM

COC1CCn2cc(C(=O)N[S@@]3(=O)=NC(=O)c4ccc5c(c4)N(C[C@@H]4CC[C@H]4[C@@H](OC)/C=C/C[C@H](C)C3)C[C@@]3(CCCc4cc(Cl)ccc43)CO5)nc2C1 (some centres unmarked) [Example 302]
EC50 (SKBR3 cells; Homo sapiens, SK-BR-3, 72 h): 302 nM | IC50 [1]: 0.091 nM

COC[C@H]1C[C@@H]1NC(=O)N[S@@]1(=O)=NC(=O)c2ccc3c(c2)N(C[C@@H]2CC[C@H]2[C@@H](OC)/C=C/C[C@H](C)C1)C[C@@]1(CCCc2cc(Cl)ccc21)CO3 [Example 303]
EC50 (SKBR3 cells; Homo sapiens, SK-BR-3, 72 h): 22.8 nM | IC50 [1]: 0.045 nM

COCc1cc(C(=O)N[S@@]2(=O)=NC(=O)c3ccc4c(c3)N(C[C@@H]3CC[C@H]3[C@@H](OC)/C=C/C[C@H](C)C2)C[C@@]2(CCCc3cc(Cl)ccc32)CO4)cn1C [Example 304]
EC50 (SKBR3 cells; Homo sapiens, SK-BR-3, 72 h): 21.3 nM | IC50 [1]: 0.129 nM

COC(=O)[C@]1(C)C[C@H](NC(=O)N[S@@]2(=O)=NC(=O)c3ccc4c(c3)N(C[C@@H]3CC[C@H]3[C@@H](OC)/C=C/C[C@H](C)C2)C[C@@]2(CCCc3cc(Cl)ccc32)CO4)C1 [Example 305]
EC50 (SKBR3 cells; Homo sapiens, SK-BR-3, 72 h): 140 nM | IC50 [1]: 0.088 nM

COC[C@@H]1Cn2cc(C(=O)N[S@@]3(=O)=NC(=O)c4ccc5c(c4)N(C[C@@H]4CC[C@H]4[C@@H](OC)/C=C/C[C@H](C)C3)C[C@@]3(CCCc4cc(Cl)ccc43)CO5)cc2CO1 [Example 306]
EC50 (SKBR3 cells; Homo sapiens, SK-BR-3, 72 h): 43.6 nM | IC50 [1]: 0.057 nM

COC[C@@H]1CC[C@H]1NC(=O)N[S@@]1(=O)=NC(=O)c2ccc3c(c2)N(C[C@@H]2CC[C@H]2[C@@H](OC)/C=C/C[C@H](C)C1)C[C@@]1(CCCc2cc(Cl)ccc21)CO3 [Example 307]
EC50 (SKBR3 cells; Homo sapiens, SK-BR-3, 72 h): 96.8 nM | IC50 [1]: 0.12 nM

CO[C@H]1/C=C/C[C@H](C)C[S@@](=O)(NC(=O)c2cc(CN3CCOCC3)n(C)c2)=NC(=O)c2ccc3c(c2)N(C[C@@H]2CC[C@H]21)C[C@@]1(CCCc2cc(Cl)ccc21)CO3 [Example 308]
EC50 (SKBR3 cells; Homo sapiens, SK-BR-3, 72 h): 16.1 nM | IC50 [1]: 0.031 nM

CO[C@H]1/C=C/C[C@H](C)C[S@@](=O)(NC(=O)c2cc(CN3CCN(C4COC4)CC3)n(C)c2)=NC(=O)c2ccc3c(c2)N(C[C@@H]2CC[C@H]21)C[C@@]1(CCCc2cc(Cl)ccc21)CO3 [Example 309]
EC50 (SKBR3 cells; Homo sapiens, SK-BR-3, 72 h): 10.5 nM | IC50 [1]: 0.029 nM

CO[C@H]1/C=C/C[C@H](C)C[S@@](=O)(NC(=O)N[C@@H]2C[C@H]2C(F)F)=NC(=O)c2ccc3c(c2)N(C[C@@H]2CC[C@H]21)C[C@@]1(CCCc2cc(Cl)ccc21)CO3 [Example 310]
EC50 (SKBR3 cells; Homo sapiens, SK-BR-3, 72 h): 230 nM | IC50 [1]: 0.074 nM

CO[C@H]1/C=C/C[C@H](C)C[S@@](=O)(NC(=O)N[C@H]2C[C@@H]2C(F)F)=NC(=O)c2ccc3c(c2)N(C[C@@H]2CC[C@H]21)C[C@@]1(CCCc2cc(Cl)ccc21)CO3 [Example 311]
EC50 (SKBR3 cells; Homo sapiens, SK-BR-3, 72 h): 13.4 nM | IC50 [1]: 0.024 nM

CO[C@H]1/C=C/C[C@H](C)C[S@@](=O)(NC(=O)N[C@H]2C[C@@](C)(CO)C2)=NC(=O)c2ccc3c(c2)N(C[C@@H]2CC[C@H]21)C[C@@]1(CCCc2cc(Cl)ccc21)CO3 [Example 314]
EC50 (SKBR3 cells; Homo sapiens, SK-BR-3, 72 h): 32.9 nM | IC50 [1]: 0.054 nM

COC[C@@H]1C[C@@H]1NC(=O)N[S@@]1(=O)=NC(=O)c2ccc3c(c2)N(C[C@@H]2CC[C@H]2[C@@H](OC)/C=C/C[C@H](C)C1)C[C@@]1(CCCc2cc(Cl)ccc21)CO3 [Example 315]
EC50 (SKBR3 cells; Homo sapiens, SK-BR-3, 72 h): 164 nM | IC50 [1]: 0.127 nM

COC[C@H]1C[C@H]1NC(=O)N[S@@]1(=O)=NC(=O)c2ccc3c(c2)N(C[C@@H]2CC[C@H]2[C@@H](OC)/C=C/C[C@H](C)C1)C[C@@]1(CCCc2cc(Cl)ccc21)CO3 [Example 316]
EC50 (SKBR3 cells; 72 hours): 116 nM | IC50 [1]: 0.056 nM

CO[C@H]1/C=C/C[C@H](C)C[S@@](=O)(NC(=O)N[C@H]2C[C@H]2OC)=NC(=O)c2ccc3c(c2)N(C[C@@H]2CC[C@H]21)C[C@@]1(CCCc2cc(Cl)ccc21)CO3 [Example 317]
EC50 (SKBR3 cells; Homo sapiens, SK-BR-3, 72 h): 48.5 nM | IC50 [1]: 0.034 nM

CO[C@H]1/C=C/C[C@H](C)C[S@@](=O)(NC(=O)N[C@@H]2C[C@@H]2OC)=NC(=O)c2ccc3c(c2)N(C[C@@H]2CC[C@H]21)C[C@@]1(CCCc2cc(Cl)ccc21)CO3 [Example 318]
EC50 (SKBR3 cells; Homo sapiens, SK-BR-3, 72 h): 74.4 nM | IC50 [1]: 0.066 nM

CO[C@H]1/C=C/C[C@H](C)C[S@@](=O)(NC(=O)c2cn(C)nc2OCCN2CCOCC2)=NC(=O)c2ccc3c(c2)N(C[C@@H]2CC[C@H]21)C[C@@]1(CCCc2cc(Cl)ccc21)CO3 [Example 319]
EC50 (SKBR3 cells; Homo sapiens, SK-BR-3, 72 h): 19.9 nM | IC50 [1]: 0.038 nM

COC1CCN(C(=O)N[S@@]2(=O)=NC(=O)c3ccc4c(c3)N(C[C@@H]3CC[C@H]3[C@@H](OC)/C=C/C[C@H](C)C2)C[C@@]2(CCCc3cc(Cl)ccc32)CO4)CC1 [Example 320]
EC50 (SKBR3 cells; Homo sapiens, SK-BR-3, 72 h): 36.6 nM | IC50 [1]: 0.035 nM
